The record followed here is patent US20210017607A1, “Methods of Predicting Responsiveness to Cancer Therapies” (The University of Chicago, priority 2019, published 2021).

Molecules are shown by their SMILES.

Test [1] has as its system PTEN/p53-deficient GEMM tumors. Briefly: PTEN/p53-deficient GEMM in vivo immune profiling. Also noted: species or system mouse. As to conditions: for CD4 and CD8 T-cell infiltration / Gr-MDSC and Tregs: copanlisib 14 mg/kg/day every alternate day, 4 weeks. The method, then: FIGS. 48A and 48B. […] PTEN/p53-deficient GEMM mice with established tumors were treated with DMXAA every other day for 14 days. Tumors were harvested and subjected to flow cytometry for detection of the indicated markers. (48A) CD8 infiltration; (48B) M1/M2 ratio of F4/80^+ cells where M1 are defined as MHC-II^+ and M2 cells are MHC-II^−. The frequency of Gr-MDSCs (Ly6C^−Ly6G^+) and surface expression of V-domain Ig suppressor of T cell activation (VISTA) and PD-L1 on Gr-MDSCs are shown.
FIGS. 71A and 71B. […] PTEN/p53-deficient GEMM mice (n=2/group) with established tumors were treated with copanlisib (14 mg/kg/day, every alternate day) for 4 weeks. Tumors were collected and analyzed for changes in global immune infiltrates, shown clockwise from twelve o'clock: CD4+, CD8+, CD19+, F4/80+, CD11c+, Mo-MDSC, Gr-MDSC, neutrophils (71A) and Treg frequency (71B) by flow cytometry. n=2 mice per arm.
Flow Cytometry. Murine tumors: Murine tumors were processed into single cell suspensions via gentle mechanical dissociation in 6 well plates containing 1 mL of 10% RPMI media supplemented with 10% fetal bovine serum, 1% penicillin-streptomycin and 2% L-glutamine. Cell suspensions were centrifuged at 500×g for 5 minutes at 4° C. and were passed through a 70-micron mesh, prior to re-suspension in FACS buffer (1×PBS containing 0.5% FBS and 0.01% sodium azide). For the stain, one million cells resuspended in 1×FACS buffer, were incubated with titrated concentrations of anti-mouse antibodies (Biolegend®), namely, CD45, CD11b, CD11c, CD19, F480,Ly6G, Ly6C, PD-L1, VISTA, I-A^e/IA^b, H-2K^b, CD3, CD4, CD8, 4-1BB, ICOS, and PD-1. Incubation with antibodies was done at 4° C. for 30-40 minutes. Following staining, cells were washed twice with 1× FACS buffer and fixed with 300 microliters of 4% paraformaldehye (Fisher Scientific®). Intracellular stains were done following fixation and permeabilization by staining with anti-mouse FOXP3 (Biolegend®) as per manufacturer's protocol. Analysis of cellular stains were done using BD instrument LSR 4-15 Fortessa™. Data files collected using BDFACSDIVA software were analyzed using FlowJo® software (Tree Star).

Test [2] deals with single cell suspensions derived from Myc-CAP (STING^lo) tumors. In words: Ex vivo reconstitution assay, IFNβ ELISA. It counts as cell-based, mouse. The conditions noted are these: for IFNβ production within supernatants: ex vivo drug treatment, 36 hours. As for the experimental part: FIGS. 15A-15E. Differential STING pathway activation within B6-Myc (STING^hi) cell lines and BMDMs relative to Myc-CAP (STING^lo) cells. (15A, 15B) The indicated cancer cell lines and BMDMs were treated with DMXAA (mouse STING agonist) for 1 and 24 hours, respectively, and protein extracts were interrogated for cGAS/STING pathway activation with the indicated antibodies by Western blotting. Supernatants were collected from for IFNβ1 ELISA following 36 hours of treatment with DMXAA (15C, 15D). (15E) Syngeneic Myc-CAP (STING^lo) tumors were processed into single cell suspensions and used for phycoerythrin-based sorting of CD45+ cellular fractions. Equal numbers of cells from these fractions were stimulated with DMXAA. Supernatants were collected at 36 hrs for detection of IFNB1 by ELISA; n=3 independent experiments; Significance/p-values were calculated by one-way Anova (for 15C & 15E) or paired t-test (for 15D); TAM=tumor associated macrophage; s.e.=short exposure; l.e.=long exposure.
FIGS. 29A-29M. PARPi alone induces DNA DSBs, but not apoptosis even in combination with PI3Ki in Myc-CAP (STING^lo) cancer cells; PARPi/PI3Ki combination induces intracellular DNA DSBs and proportionate release of MV surface-associated DNA DSBs from B6-Myc (STINGhi) cancer cells without affecting cellular viability; PARPi/PI3K treatment activates tumor-cell extrinsic cGAS/STING pathway within TAMs in vivo via MV surface-associated DNA DSBs released from tumor cells. Myc-CAP cancer cells were treated with the indicated drugs singly or in combination for 36 hours. (29A) Cells were stained with anti-mouse specific p-γH2AX antibody and a fluorescently labeled secondary antibody for determination of DNA DSBs, which were quantified by confocal microscopy. (29B) Protein extracts from cells in 29A were analyzed for the indicated pharmacodynamic biomarkers by western blotting; (29C) Annexin V-PI staining was done to assess frequency of live cells (Annexin V^− PI^−) following drug treatment. (29D) Ultracentrifugation was utilized to purify microvesicles (MVs) from supernatants in treatment groups in (29A) and associated DNA DSBs was quantified by Nanodrop®. Independent experiments n=2. (29E) Ultracentrifugation was utilized to purify MVs from supernatants in indicated treatment groups in FIG. 17A, and associated DNA DSBs were quantified by Nanodrop®; n=2 independent experiments. (29F) Syngeneic mice were engrafted with Myc-CAP (STING^lo) cells, and tumors were harvested when the tumor volume reached 400 mm^3. Single cell suspensions of the tumors were treated with the indicated drug(s), in the presence or absence of GW4869 (MV biogenesis inhibitor). (29G) Bone marrow derived macrophage (BMDMs) were co-cultured for 30 hours with supernatants (−/+ exogenous 50 units of DNase I pre-treatment for 30 minutes) from Myc-CAP cells that were treated with the indicated drug(s) for 36 hours. (29H) cGAMP (10 μg/mL) was pre-incubated with 10 units of DNAse I or mock control for 30 minutes and then added to BMDMs for 30 hours. (29I-29L) STING^+/+/STING^−/− BMDMs were co-cultured for 36 hours with supernatants from Myc-CAP and B6-Myc cancer cells that were treated with the indicated drug(s) for 36 hours. Supernatants were collected from 29F-29L at the end of treatment and analyzed for IFNβ1 by ELISA. […] Tumor volume was recorded daily for duration of experiment. […] Significance/p-values were calculated by one-way ANOVA. […]
Background: In an ELISA, binding on a coated surface is turned into a signal by an enzyme label.

The mark [3] stands for this setting: DMXAA every other day for 14 days.

As for `COc1c(OCCCN2CCOCC2)ccc2c1N=C(NC(=O)c1cnc(N)nc1)N1CCN=C21` [copanlisib], in test [1], the “CD4 and CD8 T-cell infiltration” value is “striking increase”; the “Gr-MDSC and Tregs” value was “depletion”. Further, in test [1] (listed as Copanlisib), the “CD4 and CD8 T-cell infiltration” value is “increases CD4 and CD8 T-cell infiltration”; the “Gr-MDSC and Tregs” value was “decreases Gr-MDSC and Tregs”.

As for `Nc1cc(C(F)(F)F)c(-c2cc(N3CCOCC3)nc(N3CCOCC3)n2)cn1` [buparlisib], the “IFNβ production within supernatants” value in test [2] is recorded as “not observed”.

Turning to `CNCc1ccc(-c2[nH]c3cc(F)cc4c3c2CCNC4=O)cc1` [rucaparib], the “IFNβ production within supernatants” value in test [2] is “not observed”.

With `Cc1ccc2c(=O)c3cccc(CC(=O)O)c3oc2c1C` [DMXAA, 5,6-Dimethylxanthenone-4-acetic Acid], in test [1] (setting [3]), the “CD8 T cell infiltration” value was “increases CD8 T cell infiltration” and the myeloid immunosuppression entry was “relieves myeloid immunosuppression”. For the same molecule, in test [1] (DMXAA, PTEN/p53 GEMM mice), the MDSC infiltration result is listed as “decreased MDSC infiltration”; the “VISTA and PD-L1 checkpoint expression on MDSCs” value is “reduction”. The “myeloid reprogramming and Type I interferon production within the TME” value in test [1] (Myc-CAP-PTEN knockout and PTEN/p53-deficient GEMM tumors) was “myeloid reprogramming and Type I interferon production”. Moreover, in test [1] (after DMXAA), the TIL exhaustion markers entry was “decreased 4-1BB, decreased ICOS and increased PD-1”. Moreover, in test [2] (ex vivo DMXAA treatment), the “IFN-β response within the CD45-negative tumor cell fraction” value is reported as “lack of response” and the “fold increase in IFN-β levels within the TME” value is on record as 11.4 fold.
